From the supplement of paper PMC10307832

What was measured:
Assay in all cases: relative viability (nuclei count vs DMSO), 5 days (fraction); higher = more cells survive
COR-L23 = tested on: COR-L23
Summary of the method: (§1)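 Relative viability is defined as nuclei in treated wells over nuclei in vehicle wells. Duplicate plates were run and medians reported. Lung cancer cell lines in 1536-well plates were dosed by pin tool one day after seeding, with one drug or with a fixed anchor-drug dose plus five library-drug doses (not always all listed) in √10 steps, and nuclei were counted after 5 days.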

NCI-H727 = tested on: NCI-H727
Summary of the method: as §1

HCC-366 = tested on: HCC-366
Summary of the method: as §1

NCI-H2087 = tested on: NCI-H2087
Summary of the method: as §1

HCC-827 = tested on: HCC-827
Summary of the method: as §1

NCI-H1993 = tested on: NCI-H1993
Summary of the method: as §1

SK-MES-1 = tested on: SK-MES-1
Summary of the method: as §1

BEN = tested on: BEN
Summary of the method: as §1

HCC-44 = tested on: HCC-44
Summary of the method: as §1

NCI-H2126 = tested on: NCI-H2126
Summary of the method: as §1

PC-14 = tested on: PC-14
Summary of the method: as §1

CAL-12T = tested on: CAL-12T
Summary of the method: as §1

HOP-62 = tested on: HOP-62
Summary of the method: as §1

HARA = tested on: HARA
Summary of the method: as §1

HCC-15 = tested on: HCC-15
Summary of the method: as §1

NCI-H2170 = tested on: NCI-H2170
Summary of the method: as §1

COR-L 105 = tested on: COR-L 105
Summary of the method: as §1

PC-3 [JPC-3] = tested on: PC-3 [JPC-3]
Summary of the method: as §1

LU99A = tested on: LU99A
Summary of the method: as §1

LXF-289 = tested on: LXF-289
Summary of the method: as §1

LCLC-97TM1 = tested on: LCLC-97TM1
Summary of the method: as §1

LC-2-ad = tested on: LC-2-ad
Summary of the method: as §1

NCI-H2009 = tested on: NCI-H2009
Summary of the method: as §1

O=c1[nH]c2ccccc2n1C1CCN(CCCC(c2ccc(F)cc2)c2ccc(F)cc2)CC1 [Pimozide] + CS(=O)(=O)N1CCN(Cc2cc3nc(-c4cccc5[nH]ncc45)nc(N4CCOCC4)c3s2)CC1 [Pictilisib] (partner 1 µM) was tested, and the relative viability (COR-L23; first compound 0.08 µM) was 0.705, the relative viability (COR-L23; first compound 0.253 µM) was 0.75 and the relative viability (COR-L23; first compound 0.8 µM) was 0.638. For the same compound, the relative viability (COR-L23; first compound 2.53 µM) was 0.702, the relative viability (COR-L23; first compound 8 µM) was 0.632 and the relative viability (NCI-H727; first compound 0.08 µM) was 0.367. The relative viability (NCI-H727; first compound 0.253 µM) was 0.357, the relative viability (NCI-H727; first compound 0.8 µM) was 0.389 and the relative viability (NCI-H727; first compound 2.53 µM) was 0.308. The relative viability (NCI-H727; first compound 8 µM) was 0.434, the relative viability (HCC-366; first compound 0.08 µM) was 0.164 and the relative viability (HCC-366; first compound 0.253 µM) was 0.154. It also gave a relative viability (HCC-366; first compound 0.8 µM) of 0.165, a relative viability (HCC-366; first compound 2.53 µM) of 0.0834 and a relative viability (HCC-366; first compound 8 µM) of 0.118. The relative viability (NCI-H2087; first compound 0.08 µM) was 0.9, the relative viability (NCI-H2087; first compound 0.253 µM) was 0.994 and the relative viability (NCI-H2087; first compound 0.8 µM) was 0.824. It also gave a relative viability (NCI-H2087; first compound 2.53 µM) of 0.784, a relative viability (NCI-H2087; first compound 8 µM) of 0.62 and a relative viability (HCC-827; first compound 0.253 µM) of 1.02. The relative viability (HCC-827; first compound 0.8 µM) was 0.986, the relative viability (HCC-827; first compound 2.53 µM) was 1.04 and the relative viability (HCC-827; first compound 8 µM) was 1.06. For the same compound, the relative viability (NCI-H1993; first compound 0.08 µM) was 0.751, the relative viability (NCI-H1993; first compound 0.253 µM) was 0.902 and the relative viability (NCI-H1993; first compound 0.8 µM) was 0.778. The relative viability (NCI-H1993; first compound 2.53 µM) was 0.91, the relative viability (NCI-H1993; first compound 8 µM) was 0.846 and the relative viability (SK-MES-1; first compound 0.08 µM) was 0.305. For the same compound, the relative viability (SK-MES-1; first compound 0.253 µM) was 0.308, the relative viability (SK-MES-1; first compound 0.8 µM) was 0.36 and the relative viability (SK-MES-1; first compound 2.53 µM) was 0.38. It also gave a relative viability (SK-MES-1; first compound 8 µM) of 0.341, a relative viability (BEN; first compound 0.08 µM) of 0.627 and a relative viability (BEN; first compound 0.253 µM) of 0.565. For the same compound, the relative viability (BEN; first compound 0.8 µM) was 0.583, the relative viability (BEN; first compound 2.53 µM) was 0.542 and the relative viability (BEN; first compound 8 µM) was 0.595. For the same compound, the relative viability (HCC-44; first compound 0.08 µM) was 0.58, the relative viability (HCC-44; first compound 0.253 µM) was 0.695 and the relative viability (HCC-44; first compound 0.8 µM) was 0.565. It also gave a relative viability (HCC-44; first compound 2.53 µM) of 0.576, a relative viability (HCC-44; first compound 8 µM) of 0.558 and a relative viability (NCI-H2126; first compound 0.08 µM) of 0.437. It also gave a relative viability (NCI-H2126; first compound 0.253 µM) of 0.468, a relative viability (NCI-H2126; first compound 0.8 µM) of 0.512 and a relative viability (NCI-H2126; first compound 2.53 µM) of 0.499. For the same compound, the relative viability (NCI-H2126; first compound 8 µM) was 0.539, the relative viability (PC-14; first compound 0.253 µM) was 0.631 and the relative viability (PC-14; first compound 0.8 µM) was 0.738. The relative viability (PC-14; first compound 2.53 µM) was 0.716, the relative viability (PC-14; first compound 8 µM) was 0.634 and the relative viability (CAL-12T; first compound 0.08 µM) was 0.399. For the same compound, the relative viability (CAL-12T; first compound 0.253 µM) was 0.244, the relative viability (CAL-12T; first compound 0.8 µM) was 0.418 and the relative viability (CAL-12T; first compound 2.53 µM) was 0.462. It also gave a relative viability (CAL-12T; first compound 8 µM) of 0.332, a relative viability (HOP-62; first compound 0.08 µM) of 0.687 and a relative viability (HOP-62; first compound 0.253 µM) of 0.694. For the same compound, the relative viability (HOP-62; first compound 2.53 µM) was 0.687, the relative viability (HOP-62; first compound 8 µM) was 0.635 and the relative viability (HARA; first compound 0.08 µM) was 0.252. It also gave a relative viability (HARA; first compound 0.253 µM) of 0.423, a relative viability (HARA; first compound 0.8 µM) of 0.595 and a relative viability (HARA; first compound 2.53 µM) of 0.351. It also gave a relative viability (HARA; first compound 8 µM) of 0.368, a relative viability (HCC-15; first compound 0.08 µM) of 0.809 and a relative viability (HCC-15; first compound 0.253 µM) of 0.767. It also gave a relative viability (HCC-15; first compound 0.8 µM) of 0.616, a relative viability (HCC-15; first compound 2.53 µM) of 0.709 and a relative viability (HCC-15; first compound 8 µM) of 0.749. The relative viability (NCI-H2170; first compound 0.08 µM) was 0.308, the relative viability (NCI-H2170; first compound 0.253 µM) was 0.382 and the relative viability (NCI-H2170; first compound 0.8 µM) was 0.299. For the same compound, the relative viability (NCI-H2170; first compound 2.53 µM) was 0.326, the relative viability (NCI-H2170; first compound 8 µM) was 0.236 and the relative viability (COR-L 105; first compound 0.253 µM) was 0.507. It also gave a relative viability (COR-L 105; first compound 0.8 µM) of 0.449, a relative viability (COR-L 105; first compound 2.53 µM) of 0.338 and a relative viability (COR-L 105; first compound 8 µM) of 0.353. It also gave a relative viability (PC-3 [JPC-3]; first compound 0.253 µM) of 0.695, a relative viability (PC-3 [JPC-3]; first compound 0.8 µM) of 0.654 and a relative viability (PC-3 [JPC-3]; first compound 2.53 µM) of 0.698. For the same compound, the relative viability (PC-3 [JPC-3]; first compound 8 µM) was 0.686, the relative viability (LU99A; first compound 0.08 µM) was 0.344 and the relative viability (LU99A; first compound 0.253 µM) was 0.284. For the same compound, the relative viability (LU99A; first compound 0.8 µM) was 0.314, the relative viability (LU99A; first compound 2.53 µM) was 0.302 and the relative viability (LU99A; first compound 8 µM) was 0.334. The relative viability (LXF-289; first compound 0.08 µM) was 0.75, the relative viability (LXF-289; first compound 0.253 µM) was 0.799 and the relative viability (LXF-289; first compound 0.8 µM) was 0.781. The relative viability (LXF-289; first compound 2.53 µM) was 0.744, the relative viability (LXF-289; first compound 8 µM) was 0.719 and the relative viability (LCLC-97TM1; first compound 0.08 µM) was 0.194. It also gave a relative viability (LCLC-97TM1; first compound 0.253 µM) of 0.183, a relative viability (LCLC-97TM1; first compound 0.8 µM) of 0.225 and a relative viability (LCLC-97TM1; first compound 2.53 µM) of 0.18. The relative viability (LCLC-97TM1; first compound 8 µM) was 0.119, the relative viability (LC-2-ad; first compound 0.08 µM) was 0.594 and the relative viability (LC-2-ad; first compound 0.253 µM) was 0.405. It also gave a relative viability (LC-2-ad; first compound 0.8 µM) of 0.461, a relative viability (LC-2-ad; first compound 2.53 µM) of 0.553 and a relative viability (LC-2-ad; first compound 8 µM) of 0.305. The relative viability (NCI-H2009; first compound 0.08 µM) was 0.853, the relative viability (NCI-H2009; first compound 0.253 µM) was 0.923 and the relative viability (NCI-H2009; first compound 0.8 µM) was 0.786. It also gave a relative viability (NCI-H2009; first compound 2.53 µM) of 0.769 and a relative viability (NCI-H2009; first compound 8 µM) of 0.575.
